Literature values, collected in paper PMC3309614 (Journal of the American Chemical Society, 2011).

System: kinesin-5 L214A
Settings: L214A mutation in allosteric binding site

## S-Trityl-L-cyteine [STLC]
  effect of L214A mutation on inhibition: known to suppress STLC inhibition
